Values of other authors in the CATMoS acute toxicity set (Mansouri et al. 2021).
“And” between values parts separate entries of the source, which are not always exact repeats. Equal values may be shown once.

Experiment: rat acute oral toxicity
Details: in vivo
From the text: […]The data set underlying the modeling effort for this project was initially compiled by NICEATM and U.S. EPA’s CCTE. Briefly, LD50 data were collected from rat acute oral systemic toxicity tests, including limit tests, ranges/confidence intervals, and discrete LD50 values. The full data set included 21,200 LD50 entries for 15,688 substances. […] Data were reviewed to ensure that LD50 values with obvious errors in the extracted data such as unit conversion errors (e.g., comma and decimal separator misplacements) were either fixed or removed. After this review, 16,209 LD50 values remained. Many of the chemicals represented had multiple LD50 entries, requiring that a single representative value per Chemical Abstracts Service Registry Number (CASRN) identifier be defined to facilitate modeling efforts. Based on ATWG feedback and to define the representative LD50 as a protective value while accounting for the distribution across multiple LD50s, the median of the lowest quartile was computed using only discrete LD50 values (omitting limit test data and range and confidence interval data). A detailed summary of the data compilation is available online on the NICEATM webpage dedicated to the collaborative modeling project (NTP 2020).
[…][…] For categorical designations, limit test and range/confidence interval LD50 data were integrated wherever possible. As such, the number of chemicals with end point values/calls varies across the modeling end points (Table 3) based on whether chemicals had representative LD50 values and/or other data. If a chemical had both, the representative value was used to determine categorical calls rather than limit test data. Some data were useable only for certain end points and categories depending on the thresholds. For example, ranges that spanned multiple hazard categories were considered only for the binary (very toxic/nontoxic) end points and omitted from rendering a determination for hazard category assignment.
[…]The final data set comprising 11,992 chemicals was split into training and evaluation sets […], respectively. This process was performed semirandomly by ordering chemicals based on the five end points (categorical and continuous LD50 values) and partitioning every fourth record into the evaluation set accordingly. This approach was taken to ensure an equivalent distribution of the LD50 values and the different hazard categories between the training and the evaluation sets without supervised sampling of the chemicals based on structures (Figure 1A). The sources of the chemical structures were also kept equivalent between the two sets, with chemical structures obtained from DSSTox, being the highest quality, representing over 75% of each set (Figure 1B).

SMILES	LD50
C[N+]1(C)[C@@H]2CC[C@H]1C[C@@H](OC(=O)C(O)c1ccccc1)C2 (some centres undefined)	1200 mg/kg
CC(=O)OC(c1ccc(Cl)c(Cl)c1)C(Cl)(Cl)Cl (centres undefined)	10000 mg/kg
Nc1cc([N+](=O)[O-])ccc1O	2400 mg/kg
O=S(=O)(O)c1ccc2c(c1)-c1nc-2nc2[nH]c(nc3nc(nc4[nH]c(n1)c1ccccc41)-c1ccccc1-3)c1ccccc21	3600 mg/kg
Cc1cc(C)c(N)cc1C	1250 mg/kg and 1580 mg/kg
O=[N+]([O-])c1c(Cl)c([N+](=O)[O-])c2[nH]c(C(F)(F)F)nc2c1Cl	117 mg/kg
CN(C)CC/C=C1\c2ccccc2CSc2ccccc21	450 mg/kg
Cc1cc(-c2ccc(N=Nc3c(S(=O)(=O)O)cc4cc(S(=O)(=O)O)cc(N)c4c3O)c(C)c2)ccc1N=Nc1c(S(=O)(=O)O)cc2cc(S(=O)(=O)O)cc(N)c2c1O	6200 mg/kg
CC(C(=O)OCCOCCO)c1ccc2c(c1)C(=O)Cc1ccccc1O2 (centres undefined)	260 mg/kg
S=P(OCCCl)(OCCCl)OCCCl	820 mg/kg
FC(F)(F)c1nc2c(Br)c(Cl)c(Br)cc2[nH]1	8.47 mg/kg
C#CC(O)C=CC (centres undefined)	34 mg/kg
CCCCCCOC(=O)CC(C(=O)OCCCCCC)S(=O)(=O)O (centres undefined)	1750 mg/kg
SCc1ccccc1	493 mg/kg
CC1OCCO1	2900 mg/kg
O=C(O)CNCC(=O)O	8070 mg/kg
CCC(Cc1c(I)cc(I)c(N)c1I)C(=O)O (centres undefined)	2990 mg/kg and 1540 mg/kg
CCCCCOC(C[n+]1ccccc1)c1ccc(C2CCCC2)cc1 (centres undefined)	250 mg/kg
CN(C)c1nc2cc(Cl)ccc2o1	800 mg/kg
CNCCc1ccc(OC(=O)C(C)C)c(OC(=O)C(C)C)c1	2930 mg/kg
Nc1cccc2c(N)cccc12	634 mg/kg
O=Cc1cccc(Oc2ccccc2)c1	1220 mg/kg

SMILES	LD50
CCc1cc(S(=O)(=O)O)c2cc(C(C)C)cccc1-2	1100 mg/kg
CCOP(=S)(OCC)SCC(=O)OC	1000 mg/kg
OCC[N+](CCO)(CCO)CCO	2250 mg/kg
O=[N+]([O-])c1cc(Cl)c(Cl)c(Cl)c1[N+](=O)[O-]	425 mg/kg
OCC(F)(F)C(F)(F)C(F)(F)CO	1780 mg/kg
S=C(NNc1ccccc1)NNc1ccccc1	1500 mg/kg
CCC#N	39 mg/kg
CC(C)N(CCC(C#N)(c1ccccc1)c1ccccn1)C(C)C (centres undefined)	596 mg/kg
CCCCCCCCCCCCCCCCOP(=O)([O-])OCC[N+](C)(C)C	246 mg/kg
COc1ccccc1NC(=O)CC(=O)c1ccccc1	1600 mg/kg
CCOP(=O)(OCC)SCSP(=O)(OCC)OCC	12.8 mg/kg
Cc1ccc(S(=O)(=O)NC(=O)NN2CC3CCCC3C2)cc1 (centres undefined)	3000 mg/kg
COCCCOCC(C)OCCCOC(=O)c1ccccc1 (centres undefined)	5480 mg/kg
O=C1OCCO1	10000 mg/kg
N#CCCCCC#N	155 mg/kg
CCCSC(=O)Oc1c(C(C)CC)cc([N+](=O)[O-])cc1[N+](=O)[O-] (centres undefined)	584 mg/kg
CCC(CC(C)CC)=NO (centres undefined)	3800 mg/kg
Cc1ccc2[nH]nnc2c1	1600 mg/kg
NCC(O)CO (centres undefined)	7500 mg/kg
CCOP(=S)(OCC)Oc1cnc2ccccc2n1	26 mg/kg
CCCCCCCCCCCCOCC(O)COS(=O)(O)=S (centres undefined)	1820 mg/kg
Cc1cc2[nH]c(C(F)(F)F)nc2c([N+](=O)[O-])c1C	67 mg/kg

SMILES	LD50
ClC=C(Cl)CCl	616 mg/kg
O=C1C=Cc2cc(Br)ccc2C1=O	3900 mg/kg
CC1(C)Cc2cccc(OC(=O)NCSc3ccc(C(C)(C)C)cc3)c2O1	125 mg/kg
[2H]C([2H])([2H])N(COC(C)=O)N=O	120 mg/kg
CNC(=O)Oc1ccccc1C1OCCS1 (centres undefined)	56 mg/kg
Nc1ncnc2c1ccn2C1OC(CO)C(O)C1O (centres undefined)	16 mg/kg
COC(=O)C1=C(C)NC(C)=C(C(=O)O[C@H]2CCN(Cc3ccccc3)C2)[C@H]1c1cccc([N+](=O)[O-])c1	105 mg/kg
CCCCC(CC)COCCC#N (centres undefined)	4920 mg/kg
NCCCCCCC(=O)O	9000 mg/kg
CC(C)CCC(C)Nc1ccc(NC(C)CCC(C)C)cc1 (centres undefined)	750 mg/kg
C1CN2CCN1CC2	1700 mg/kg
COc1ccc2cc([C@H](C)C(=O)OCCN3CCN(Cc4ccccc4)CC3)ccc2c1	1100 mg/kg
CNC(=O)Nc1nc2ccccc2s1	1280 mg/kg
CCOP(=S)(OCC)SCSC(=S)N(C)C	150 mg/kg
Nc1cc2c(cc1C1CCCCC1)CCC2C(=O)O (centres undefined)	54 mg/kg
CN1CCCN(C)C1=O	1770 mg/kg
C=CC(CCCCC)OC(C)=O (centres undefined)	850 mg/kg
O=S(=O)(Cl)c1ccccc1Cl	7500 mg/kg
N#CC1CC=CCC1 (centres undefined)	460 mg/kg
C=C(CC(C)(C)c1ccccc1)c1ccccc1	300 mg/kg
